The supplement of paper PMC10307832

Experiments:
Assay in all cases: relative viability (nuclei count vs DMSO), 5 days (fraction); higher = more cells survive
BEN = tested on: BEN
Procedure, shortened: (§1)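 Lung cancer cell lines in 1536-well plates were dosed by pin tool the day after seeding, either with one drug alone or with a fixed anchor-drug dose plus five library-drug doses (not always all listed) in √10 steps. After 5 days, cells were fixed and their nuclei stained in one step (final 0.05% Triton X-100, 1% formaldehyde, 1 ug/ml Hoechst), then counted on 4× images. Relative viability is the nuclei count in treated wells divided by that in vehicle wells. Values are medians of duplicate plates.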

CAL-12T = tested on: CAL-12T
Procedure, shortened: as §1

COR-L23 = tested on: COR-L23
Procedure, shortened: as §1

HCC-366 = tested on: HCC-366
Procedure, shortened: as §1

LOU-NH91 = tested on: LOU-NH91
Procedure, shortened: as §1

LU99A = tested on: LU99A
Procedure, shortened: as §1

NCI-H1355 = tested on: NCI-H1355
Procedure, shortened: as §1

NCI-H1437 = tested on: NCI-H1437
Procedure, shortened: as §1

NCI-H1563 = tested on: NCI-H1563
Procedure, shortened: as §1

NCI-H1650 = tested on: NCI-H1650
Procedure, shortened: as §1

NCI-H1651 = tested on: NCI-H1651
Procedure, shortened: as §1

NCI-H1734 = tested on: NCI-H1734
Procedure, shortened: as §1

NCI-H1793 = tested on: NCI-H1793
Procedure, shortened: as §1

NCI-H1975 = tested on: NCI-H1975
Procedure, shortened: as §1

NCI-H2023 = tested on: NCI-H2023
Procedure, shortened: as §1

NCI-H2085 = tested on: NCI-H2085
Procedure, shortened: as §1

NCI-H2342 = tested on: NCI-H2342
Procedure, shortened: as §1

NCI-H358 = tested on: NCI-H358
Procedure, shortened: as §1

NCI-H441 = tested on: NCI-H441
Procedure, shortened: as §1

NCI-H460 = tested on: NCI-H460
Procedure, shortened: as §1

NCI-H838 = tested on: NCI-H838
Procedure, shortened: as §1

SK-LU-1 = tested on: SK-LU-1
Procedure, shortened: as §1

Nc1ccn([C@@H]2O[C@H](CO)[C@@H](O)[C@@H]2O)c(=O)n1 [Cytarabine] + N=C(N)NC(=N)NCCc1ccccc1 [Phenformin] (partner 250 µM)
relative viability (BEN; first compound 0.005 µM): 0.193
relative viability (BEN; first compound 0.01581 µM): 0.22
relative viability (BEN; first compound 0.05 µM): 0.244
relative viability (BEN; first compound 0.1581 µM): 0.195
relative viability (BEN; first compound 0.5 µM): 0.212
relative viability (CAL-12T; first compound 0.005 µM): 0.524
relative viability (CAL-12T; first compound 0.01581 µM): 0.489
relative viability (CAL-12T; first compound 0.05 µM): 0.638
relative viability (CAL-12T; first compound 0.1581 µM): 0.283
relative viability (CAL-12T; first compound 0.5 µM): 0.18
relative viability (COR-L23; first compound 0.005 µM): 0.328
relative viability (COR-L23; first compound 0.01581 µM): 0.325
relative viability (COR-L23; first compound 0.05 µM): 0.3
relative viability (COR-L23; first compound 0.1581 µM): 0.146
relative viability (COR-L23; first compound 0.5 µM): 0.137
relative viability (HCC-366; first compound 0.005 µM): 0.617
relative viability (HCC-366; first compound 0.01581 µM): 0.586
relative viability (HCC-366; first compound 0.05 µM): 0.528
relative viability (HCC-366; first compound 0.1581 µM): 0.2
relative viability (HCC-366; first compound 0.5 µM): 0.0951
relative viability (LOU-NH91; first compound 0.005 µM): 0.732
relative viability (LOU-NH91; first compound 0.01581 µM): 0.75
relative viability (LOU-NH91; first compound 0.05 µM): 0.467
relative viability (LOU-NH91; first compound 0.1581 µM): 0.413
relative viability (LOU-NH91; first compound 0.5 µM): 0.508
relative viability (LU99A; first compound 0.005 µM): 1.07
relative viability (LU99A; first compound 0.01581 µM): 0.747
relative viability (LU99A; first compound 0.05 µM): 0.871
relative viability (LU99A; first compound 0.1581 µM): 0.775
relative viability (LU99A; first compound 0.5 µM): 0.808
relative viability (NCI-H1355; first compound 0.005 µM): 0.353
relative viability (NCI-H1355; first compound 0.01581 µM): 0.428
relative viability (NCI-H1355; first compound 0.05 µM): 0.382
relative viability (NCI-H1355; first compound 0.1581 µM): 0.254
relative viability (NCI-H1355; first compound 0.5 µM): 0.261
relative viability (NCI-H1437; first compound 0.005 µM): 0.199
relative viability (NCI-H1437; first compound 0.01581 µM): 0.183
relative viability (NCI-H1437; first compound 0.05 µM): 0.17
relative viability (NCI-H1437; first compound 0.5 µM): 0.105
relative viability (NCI-H1563; first compound 0.005 µM): 0.548
relative viability (NCI-H1563; first compound 0.01581 µM): 0.642
relative viability (NCI-H1563; first compound 0.05 µM): 0.706
relative viability (NCI-H1563; first compound 0.1581 µM): 0.56
relative viability (NCI-H1563; first compound 0.5 µM): 0.567
relative viability (NCI-H1650; first compound 0.005 µM): 0.386
relative viability (NCI-H1650; first compound 0.01581 µM): 0.263
relative viability (NCI-H1650; first compound 0.05 µM): 0.252
relative viability (NCI-H1650; first compound 0.1581 µM): 0.177
relative viability (NCI-H1650; first compound 0.5 µM): 0.125
relative viability (NCI-H1651; first compound 0.005 µM): 0.304
relative viability (NCI-H1651; first compound 0.01581 µM): 0.346
relative viability (NCI-H1651; first compound 0.05 µM): 0.319
relative viability (NCI-H1651; first compound 0.1581 µM): 0.2
relative viability (NCI-H1651; first compound 0.5 µM): 0.18
relative viability (NCI-H1734; first compound 0.005 µM): 0.322
relative viability (NCI-H1734; first compound 0.01581 µM): 0.219
relative viability (NCI-H1734; first compound 0.05 µM): 0.191
relative viability (NCI-H1734; first compound 0.1581 µM): 0.155
relative viability (NCI-H1734; first compound 0.5 µM): 0.155
relative viability (NCI-H1793; first compound 0.005 µM): 0.359
relative viability (NCI-H1793; first compound 0.01581 µM): 0.34
relative viability (NCI-H1793; first compound 0.05 µM): 0.284
relative viability (NCI-H1793; first compound 0.1581 µM): 0.251
relative viability (NCI-H1793; first compound 0.5 µM): 0.216
relative viability (NCI-H1975; first compound 0.005 µM): 0.331
relative viability (NCI-H1975; first compound 0.01581 µM): 0.344
relative viability (NCI-H1975; first compound 0.05 µM): 0.31
relative viability (NCI-H1975; first compound 0.1581 µM): 0.193
relative viability (NCI-H1975; first compound 0.5 µM): 0.177
relative viability (NCI-H2023; first compound 0.005 µM): 0.287
relative viability (NCI-H2023; first compound 0.01581 µM): 0.224
relative viability (NCI-H2023; first compound 0.05 µM): 0.183
relative viability (NCI-H2023; first compound 0.1581 µM): 0.0883
relative viability (NCI-H2023; first compound 0.5 µM): 0.0962
relative viability (NCI-H2085; first compound 0.005 µM): 0.746
relative viability (NCI-H2085; first compound 0.01581 µM): 0.67
relative viability (NCI-H2085; first compound 0.05 µM): 0.757
relative viability (NCI-H2085; first compound 0.1581 µM): 0.413
relative viability (NCI-H2085; first compound 0.5 µM): 0.362
relative viability (NCI-H2342; first compound 0.005 µM): 0.543
relative viability (NCI-H2342; first compound 0.01581 µM): 0.57
relative viability (NCI-H2342; first compound 0.05 µM): 0.482
relative viability (NCI-H2342; first compound 0.1581 µM): 0.449
relative viability (NCI-H2342; first compound 0.5 µM): 0.404
relative viability (NCI-H358; first compound 0.005 µM): 0.235
relative viability (NCI-H358; first compound 0.01581 µM): 0.2
relative viability (NCI-H358; first compound 0.05 µM): 0.222
relative viability (NCI-H358; first compound 0.1581 µM): 0.0765
relative viability (NCI-H358; first compound 0.5 µM): 0.076
relative viability (NCI-H441; first compound 0.005 µM): 0.79
relative viability (NCI-H441; first compound 0.01581 µM): 0.655
relative viability (NCI-H441; first compound 0.05 µM): 0.783
relative viability (NCI-H441; first compound 0.1581 µM): 0.399
relative viability (NCI-H441; first compound 0.5 µM): 0.298
relative viability (NCI-H460; first compound 0.005 µM): 0.309
relative viability (NCI-H460; first compound 0.01581 µM): 0.248
relative viability (NCI-H460; first compound 0.05 µM): 0.114
relative viability (NCI-H460; first compound 0.1581 µM): 0.0419
relative viability (NCI-H460; first compound 0.5 µM): 0.0341
relative viability (NCI-H838; first compound 0.005 µM): 0.482
relative viability (NCI-H838; first compound 0.01581 µM): 0.532
relative viability (NCI-H838; first compound 0.05 µM): 0.422
relative viability (NCI-H838; first compound 0.1581 µM): 0.241
relative viability (NCI-H838; first compound 0.5 µM): 0.201
relative viability (SK-LU-1; first compound 0.005 µM): 0.353
relative viability (SK-LU-1; first compound 0.01581 µM): 0.413
relative viability (SK-LU-1; first compound 0.05 µM): 0.445
relative viability (SK-LU-1; first compound 0.1581 µM): 0.241
relative viability (SK-LU-1; first compound 0.5 µM): 0.2
